Experimental data published in patent US10087229B2, “Peptide compound” (TAKEDA PHARMACEUTICAL COMPANY LIMITED, priority 2013, dated 2018).
Square brackets hold non-standard residues; d marks the D form. Peptide text beside a SMILES is read from it. αMeF = C[C@](N)(Cc1ccccc1)C(=O)O; 4Pal = N[C@@H](Cc1ccncc1)C(=O)O; Cha = N[C@@H](CC1CCCCC1)C(=O)O; Aib = CC(C)(N)C(=O)O

tested on: male C57BL/6J mouse; test: 2-days continuous subcutaneous administration test (feeding suppressive activity); type: in vivo; settings: 10 nmol/kg/day, subcutaneous Alzet pump, 2-days cumulative food consumption, control (solvent alone) = 0%
Protocol: 2-Days Continuous Subcutaneous Administration Test
The feeding suppressive activity of a test compound was examined by the method described below.
The test compound was dissolved in a solvent (50% DMSO) so that sustained release would occur at 10 nmol/kg/day, and the solution was filled in the Alzet Pump (DURECT Corporation, model: 1003D). The pump thus filled with the solution to be administered was immersed in physiological saline for priming, and then used. The pump was embedded by the following method. Each male C57BL/6J mouse at 8-9 weeks of age (20-26° C., allowed to take food and water ad libitum; 12-hour bright-12-hour dark cycle) was anesthetized; the skin in the upper back thereof was incised, and the above-mentioned pump was embedded subcutaneously; the incision was sutured. After weighing, this mouse was returned to the rearing cage (reared alone), and given previously weighed food; food consumption as of 2 days after the start of administration was measured. The food consumption was calculated by subtracting the amount of remaining food from the weight of the food given on the day of the start of administration. When the food consumption of a control group receiving administration of the solvent alone was regarded as a suppression rate of 0%, the feeding suppressive activity of each test compound was evaluated on the basis of 2-days cumulative food consumption after the start of administration. The food intake suppression rate (%) of the test compound was defined as (Food consumption of the control group−Food consumption of the test compound-administered group)/Food consumption of the control group×100.

Row | Structure (SMILES) | Food intake suppression (%)
1 | CC[C@H](C)[C@H](NC(=O)[C@H](C)NC(=O)[C@H](Cc1ccc(O)cc1)NC(=O)[C@H](CC(=O)O)NC(=O)[C@H](CO)NC(=O)[C@@H](NC(=O)[C@](C)(Cc1ccccc1)NC(=O)[C@@H](NC(=O)CNC(=O)[C@H](CCC(=O)O)NC(=O)C(C)(C)NC(=O)[C@@H](N)Cc1ccc(O)cc1)[C@@H](C)O)[C@@H](C)O)C(=O)NC(C)(C)C(=O)N[C@@H](CC(C)C)C(=O)N[C@@H](CC(=O)O)C(=O)N[C@@H](CCCCN)C(=O)N[C@@H](CCC(N)=O)C(=O)N[C@@H](C)C(=O)N[C@@H](CCC(N)=O)C(=O)N[C@@H](C)C(=O)N[C@@H](CCC(=O)O)C(=O)N[C@@H](Cc1ccccc1)C(=O)N[C@H](C(=O)N[C@@H](CCCCN)C(=O)N[C@@H](Cc1c[nH]c2ccccc12)C(=O)N[C@@H](CC(C)C)C(=O)N[C@@H](CC(C)C)C(=O)N[C@@H](CCCCN)C(=O)NCC(=O)NCC(=O)N1CCC[C@H]1C(=O)N[C@@H](CO)C(=O)N[C@@H](CO)C(=O)NCC(=O)N[C@@H](C)C(=O)N1CCC[C@H]1C(=O)N1CCC[C@H]1C(=O)N1CCC[C@H]1C(=O)N[C@@H](CO)C(=O)N[C@@H](CCCCN)C(N)=O)C(C)C [Example 1] (H-Y[Aib]EGT[αMeF]TSDYAI[Aib]LDKQAQAEFVKWLLKGGPSSGAPPPSK-NH2) | 42.68%
2 | CC[C@H](C)[C@H](NC(=O)C(C)(C)NC(=O)[C@H](Cc1ccc(O)cc1)NC(=O)[C@H](CC(=O)O)NC(=O)[C@H](CO)NC(=O)[C@@H](NC(=O)[C@](C)(Cc1ccccc1)NC(=O)[C@@H](NC(=O)CNC(=O)[C@H](CCC(=O)O)NC(=O)C(C)(C)NC(=O)[C@@H](N)Cc1ccc(O)cc1)[C@@H](C)O)[C@@H](C)O)C(=O)N[C@@H](CC1CCCCC1)C(=O)N[C@@H](CC(C)C)C(=O)N[C@@H](CC(=O)O)C(=O)N[C@@H](CCCCN)C(=O)N[C@@H](CCC(N)=O)C(=O)N[C@@H](C)C(=O)N[C@@H](CCC(N)=O)C(=O)N[C@@H](C)C(=O)N[C@@H](CCC(=O)O)C(=O)N[C@@H](Cc1ccccc1)C(=O)N[C@H](C(=O)N[C@@H](CCCCN)C(=O)N[C@@H](Cc1c[nH]c2ccccc12)C(=O)N[C@@H](CC(C)C)C(=O)N[C@@H](CC(C)C)C(=O)N[C@@H](CCCCN)C(=O)NCC(=O)NCC(=O)N1CCC[C@H]1C(=O)N[C@@H](CO)C(=O)N[C@@H](CO)C(=O)NCC(=O)N[C@@H](C)C(=O)N1CCC[C@H]1C(=O)N1CCC[C@H]1C(=O)N1CCC[C@H]1C(=O)N[C@@H](CO)C(=O)N[C@@H](CCCCN)C(N)=O)C(C)C [Example 14] (H-Y[Aib]EGT[αMeF]TSDY[Aib]I[Cha]LDKQAQAEFVKWLLKGGPSSGAPPPSK-NH2) | 47.47%
3 | CC(C)C[C@H](NC(=O)[C@H](CC(C)C)NC(=O)[C@H](Cc1c[nH]c2ccccc12)NC(=O)[C@H](CCCCN)NC(=O)[C@@H](NC(=O)[C@H](Cc1ccccc1)NC(=O)[C@H](CCC(=O)O)NC(=O)[C@H](C)NC(=O)[C@H](CCC(N)=O)NC(=O)[C@H](C)NC(=O)[C@H](CCC(N)=O)NC(=O)[C@H](CCCCN)NC(=O)[C@H](CC(=O)O)NC(=O)[C@H](CC(C)C)NC(=O)C(C)(C)NC(=O)[C@H](Cc1ccncc1)NC(=O)C(C)(C)NC(=O)[C@H](Cc1ccc(O)cc1)NC(=O)[C@H](CC(=O)O)NC(=O)[C@H](CO)NC(=O)[C@@H](NC(=O)[C@](C)(Cc1ccccc1)NC(=O)[C@@H](NC(=O)CNC(=O)[C@H](CCC(=O)O)NC(=O)C(C)(C)NC(=O)[C@@H](N)Cc1ccc(O)cc1)[C@@H](C)O)[C@@H](C)O)C(C)C)C(=O)N[C@@H](CCCCN)C(=O)NCC(=O)NCC(=O)N1CCC[C@H]1C(=O)N[C@@H](CO)C(=O)N[C@@H](CO)C(=O)NCC(=O)N[C@@H](C)C(=O)N1CCC[C@H]1C(=O)N1CCC[C@H]1C(=O)N1CCC[C@H]1C(=O)N[C@@H](CO)C(=O)N[C@@H](CCCCN)C(N)=O [Example 12] (H-Y[Aib]EGT[αMeF]TSDY[Aib][4Pal][Aib]LDKQAQAEFVKWLLKGGPSSGAPPPSK-NH2) | 55.07%
4 | CC[C@H](C)[C@H](NC(=O)C(C)(C)NC(=O)[C@H](Cc1ccc(O)cc1)NC(=O)[C@H](CC(=O)O)NC(=O)[C@H](CO)NC(=O)[C@@H](NC(=O)[C@](C)(Cc1ccccc1)NC(=O)[C@@H](NC(=O)CNC(=O)[C@H](CCC(=O)O)NC(=O)C(C)(C)NC(=O)[C@@H](N)Cc1ccc(O)cc1)[C@@H](C)O)[C@@H](C)O)C(=O)NC(C)(C)C(=O)N[C@@H](CC(C)C)C(=O)N[C@@H](CC(=O)O)C(=O)N[C@@H](CCCCN)C(=O)N[C@@H](CCC(N)=O)C(=O)N[C@@H](C)C(=O)N[C@@H](CCC(N)=O)C(=O)N[C@@H](CO)C(=O)N[C@@H](CCC(=O)O)C(=O)N[C@@H](Cc1ccccc1)C(=O)N[C@H](C(=O)N[C@@H](CCCCN)C(=O)N[C@@H](Cc1c[nH]c2ccccc12)C(=O)N[C@@H](CC(C)C)C(=O)N[C@@H](CC(C)C)C(=O)N[C@@H](CCCCN)C(=O)NCC(=O)NCC(=O)N1CCC[C@H]1C(=O)N[C@@H](CO)C(=O)N[C@@H](CO)C(=O)NCC(=O)N[C@@H](C)C(=O)N1CCC[C@H]1C(=O)N1CCC[C@H]1C(=O)N1CCC[C@H]1C(=O)N[C@@H](CO)C(N)=O)C(C)C [Example 8] (H-Y[Aib]EGT[αMeF]TSDY[Aib]I[Aib]LDKQAQSEFVKWLLKGGPSSGAPPPS-NH2) | 48.34%
5 | CC(C)C[C@H](NC(=O)[C@H](CC(C)C)NC(=O)[C@H](Cc1c[nH]c2ccccc12)NC(=O)[C@H](CCCCN)NC(=O)[C@@H](NC(=O)[C@H](Cc1ccccc1)NC(=O)[C@H](CCC(=O)O)NC(=O)[C@H](C)NC(=O)[C@H](CCC(N)=O)NC(=O)[C@H](C)NC(=O)[C@H](CCC(N)=O)NC(=O)[C@H](CCCCN)NC(=O)[C@H](CC(=O)O)NC(=O)[C@H](CC(C)C)NC(=O)[C@](C)(Cc1ccccc1)NC(=O)[C@H](CCCCN)NC(=O)C(C)(C)NC(=O)[C@H](Cc1ccc(O)cc1)NC(=O)[C@H](CC(=O)O)NC(=O)[C@H](CO)NC(=O)[C@@H](NC(=O)[C@](C)(Cc1ccccc1)NC(=O)[C@@H](NC(=O)CNC(=O)[C@H](CCC(=O)O)NC(=O)C(C)(C)NC(=O)[C@@H](N)Cc1ccc(O)cc1)[C@@H](C)O)[C@@H](C)O)C(C)C)C(=O)N[C@@H](CCCCN)C(=O)NCC(=O)NCC(=O)N1CCC[C@H]1C(=O)N[C@@H](CO)C(=O)N[C@@H](CO)C(=O)NCC(=O)N[C@@H](C)C(=O)N1CCC[C@H]1C(=O)N1CCC[C@H]1C(=O)N1CCC[C@H]1C(=O)N[C@@H](CO)C(=O)N[C@@H](CCCCN)C(N)=O [Example 15] (H-Y[Aib]EGT[αMeF]TSDY[Aib]K[αMeF]LDKQAQAEFVKWLLKGGPSSGAPPPSK-NH2) | 58.80%
6 | CC[C@H](C)[C@H](NC(=O)C(C)(C)NC(=O)[C@H](Cc1ccc(O)cc1)NC(=O)[C@H](CC(=O)O)NC(=O)[C@H](CO)NC(=O)[C@@H](NC(=O)[C@](C)(Cc1ccccc1)NC(=O)[C@@H](NC(=O)CNC(=O)[C@H](CCC(=O)O)NC(=O)C(C)(C)NC(=O)[C@@H](N)Cc1ccc(O)cc1)[C@@H](C)O)[C@@H](C)O)C(=O)N[C@@](C)(Cc1ccccc1)C(=O)N[C@@H](CC(C)C)C(=O)N[C@@H](CC(=O)O)C(=O)N[C@@H](CCCCN)C(=O)N[C@@H](CCC(N)=O)C(=O)N[C@@H](C)C(=O)N[C@@H](CCC(N)=O)C(=O)N[C@@H](C)C(=O)N[C@@H](CCC(=O)O)C(=O)N[C@@H](Cc1ccccc1)C(=O)N[C@H](C(=O)N[C@@H](CCCCN)C(=O)N[C@@H](Cc1c[nH]c2ccccc12)C(=O)N[C@@H](CC(C)C)C(=O)N[C@@H](CC(C)C)C(=O)N[C@@H](CCCCN)C(=O)NCC(=O)NCC(=O)N1CCC[C@H]1C(=O)N[C@@H](CO)C(=O)N[C@@H](CO)C(=O)NCC(=O)N[C@@H](C)C(=O)N1CCC[C@H]1C(=O)N1CCC[C@H]1C(=O)N1CCC[C@H]1C(=O)N[C@@H](CO)C(=O)N[C@@H](CCCCN)C(N)=O)C(C)C [Example 13] (H-Y[Aib]EGT[αMeF]TSDY[Aib]I[αMeF]LDKQAQAEFVKWLLKGGPSSGAPPPSK-NH2) | 57.12%
